Reference: patent publication US20190030182A1, “WATER-SOLUBLE POLYMER-LINKED BINDING MOIETY AND DRUG COMPOUNDS” (Nektar Therapeutics, priority 2011, published 2019)

Tests used:
[1] = tested on: NCI-N87 cells (Her2 positive); assay: In vitro cytotoxic activity (CytoTox-Glo), NCI-N87; type: cell-based; details: Homo sapiens, N87, 48 hours, medium pH 6.5
Description: (§1) The conjugates were also tested in a Her2 negative cell line, […] as an experimental control. Serial dilutions of the conjugates and control compound were prepared. Cells were lifted from the flask using 2 mL of trypsin for 5 min, neutralized with 8 mL of complete growth medium, and centrifuged at 1200 rpm for 5 min. The supernatant was aspirated and the cell pellet was washed with PBS, centrifuged, then resuspended in complete growth medium (McCoy's for SKOV3 and RPMI-1640 for N87 and SK-N-SH, supplemented with 10% heat inactivated FBS), pH 6.5. Cells were counted, diluted, and then plated in white, clear bottom 96-well plates at a density of 20,000 cells/well, then followed immediately by addition of conjugates and control compound. Cells were incubated with the test articles for 48 hours in a 37° C., 5% CO^2 incubator, and then analyzed for cytotoxic activity using Promega CytoTox-Glo chemiluminescent reagent (Cat#G9291). Signal was quantified with a Perkin Elmer TopCount plate reader, and the data was analyzed using the GraphPad Prism software. FIGS. 4, 5, and 6 are linear regression graphs for each cell line where mean RLU is plotted vs. concentration.

[2] = tested on: SKOV-3 cells (Her2 positive); assay: In vitro cytotoxic activity (CytoTox-Glo), SKOV-3; type: cell-based; details: Homo sapiens, SK-OV-3; SKOV3, 48 hours, medium pH 6.5
Description: as §1

[3] = tested on: SK-N-SH cells (Her2 negative); assay: In vitro cytotoxic activity (CytoTox-Glo), SK-N-SH; type: cell-based; details: Homo sapiens, 48 hours, medium pH 6.5
Description: as §1

[4] = tested on: N87 gastric carcinoma xenografts; assay: Antitumor activity in N87 (HER2 overexpressing gastric carcinoma) xenografts; type: in vivo, female SCID mice; details: single i.v.; for Animals with tumors in inhibition (number/group) / Animals with tumors in regression (number/group) / Mean Tumor Growth Inhibition / Regression: Day 35; for Highest Tumor Volume Recorded / Lowest Tumor Volume Recorded / Tumor Volume on Study Termination (Day 35) / Tumor Volume on Treatment Initiation (Day 0): Mean±SEM; for Tumor Volume on Treatment Initiation (Day 0): baseline
Description: The objective of this study was to evaluate the antitumor activity of a single administration of anti-HER2 targeted PEG-conjugated docetaxel on N87 gastric carcinoma xenografts in female SCID mice.
Animal Husbandry: Female C.B.-17 SCID mice (5-6 weeks old), purchased from Charles River Laboratories were used for this study. Upon arrival, the mice were housed in ventilated polycarbonate cages with sterile bedding at five animals per cage and acclimated for a minimum of three days. The cages were identified by cage labels or tags. Sterilized (autoclaved or irradiated) water and commercial rodent diet were supplied ad libitum. Cages, bedding and water bottles were changed at least once a week and food was replenished as needed. The animals were maintained at a temperature
Tumor Cell Preparation: All handling and preparation of cells were conducted in a biosafety cabinet for sterility and safety. N87, gastric carcinoma cells from the NEKTAR liquid nitrogen freezers were used for this study. The cells were grown in sterile tissue culture flasks with RPMI 1640 media containing 10% Fetal Bovine Serum (FBS) until 85% confluence. To prepare for implantation, the cells in the flasks were rinsed briefly with an appropriate amount of 0.25% trypsin solution. The rinsate was removed and replaced with 2 to 3 mL of fresh 0.25% trypsin solution. The flasks were then placed in a 37′C incubator for 5 minutes. When the cells dissociated, an appropriate amount of complete growth media was added to neutralize the trypsin. The suspension was centrifuged at 1000 rpm for 10 minutes after which the supernatant was discarded. The cells were washed by resuspending the pellet in an appropriate volume of serum free media. A sample was removed for counting and the rest of the suspension was again centrifuged at 1000 rpm for 10 minutes. After centrifugation, the supernatant was discarded and the cell pellet resuspended in serum free media at an appropriate volume determined by the cell count.
Tumor Cell Implantation: All handling of animals and procedures were done in a biosafety cabinet. The animals' flanks were shaved prior to the day of implantation. The mice were anesthetized via isoflurane inhalation, when in proper anesthetic plane; the flanks were wiped with 70% isopropanol followed by implantation of the NCI N87 cells at 1×10^7 cells/site in 0.2 mL volume (in 50% Matrigel®) injected subcutaneous on the right flank of the animals. The animals were distributed accordingly based on the randomization generated by the StudyLog® software.
Treatment Groups: There were 5 groups with 8 to 10 animals each. Included were vehicle (Saline), Docetaxel at 10 mg/kg and 20 mg/kg, Affibody A-linear 2 kD PEG-docetaxel 10 mg/kg (Example 6) (Docetaxel concentration) and Affibody A-linear 20 kD PEG-docetaxel at 10 mg/kg (Example 6) (Docetaxel concentration) respectively.
Treatment Administration: The animals were distributed based on the randomization generated by the StudyLog® software. The mean tumor volumes on treatment day (Day 0) ranged from 209±8 mm^3 to 239±15 mm^3 (Mean±SEM). All test articles were diluted in sterile saline to the appropriate concentration and were administered as single dose to the appropriate treatment group via intravenous injection (i.v.). Animals were warmed in clear acrylic hotboxes to facilitate venous dilation. While in the hotboxes, the animals were closely observed for signs of overheating and distress. When the animals were amply warmed, they were removed from the hotboxes and transferred into appropriate mouse restrainers. The tails were wiped with alcohol pads and the test article in a syringe with a 27 gauge needle was injected into the lateral tail vein. Maximum treatment volume for the i.v. injections will not exceed 20 mL/kg.
Tumor Measurements and Body Weights: Tumors size was monitored at least twice weekly. Dimensions (length and the width) were measured using digital calipers. Tumor volume was computed using the formula: […]

[5] = Body weight in the N87 xenograft study; type: in vivo, female SCID mice
Description: Where: L=length of the tumor in millimeters and W=width of the tumor in millimeters Tumor growth on each animal was monitored to a maximum volume of […]. Animals were weighed prior to implantation and at least twice weekly for the duration of the study.
Mean body weights ranged from 19.6±0.4 g to 20.7±0.5 g (Mean±SEM) on treatment day (FIG. 10). Greatest mean body weight loss observed was 4% in group 3 (docetaxel, 20 mg·kg) on day 4 followed by group 2 (Docetaxel, 10 mg/kg) at 2% observed on days 4 and 7 (FIG. 11). No abnormal clinical observations were noted throughout the study.

`CC(=O)O[C@@]12CO[C@@H]1C[C@H](O)[C@@]1(C)C(=O)[C@H](O)C3=C(C)[C@@H](OC(=O)[C@H](O)[C@@H](NC(=O)OC(C)(C)C)c4ccccc4)C[C@@](O)([C@@H](OC(=O)c4ccccc4)[C@H]21)C3(C)C` [Docetaxel, reference compound] gave an EC50 [1] of 0.00544 nM, an EC50 [2] of 1.9 nM and an EC50 [3] of 1.97 nM. The “Animals with tumors in inhibition (number/group)” value ([4]; Docetaxel Dose 10 mg/kg) was “(9/10)”, the “Animals with tumors in regression (number/group)” value ([4]; Docetaxel Dose 10 mg/kg) was “(1/10)” and the “Mean Tumor Growth Inhibition” value ([4]; Docetaxel Dose 10 mg/kg) was 67.5%. The Regression ([4]; Docetaxel Dose 10 mg/kg) was 26%, the “Highest Tumor Volume Recorded” value ([4]; Docetaxel Dose 10 mg/kg) was 452 ± 80 mm^3 and the “Lowest Tumor Volume Recorded” value ([4]; Docetaxel Dose 10 mg/kg) was 182 ± 25 mm^3. The “Tumor Volume on Study Termination (Day 35)” value ([4]; Docetaxel Dose 10 mg/kg) was 452 ± 80 mm^3, the “Tumor Volume on Treatment Initiation (Day 0)” value ([4]; Docetaxel Dose 10 mg/kg) was 224 ± 19 mm^3 and the “Animals with tumors in inhibition (number/group)” value ([4]; Docetaxel Dose 20 mg/kg) was “(9/10)”. The “Animals with tumors in regression (number/group)” value ([4]; Docetaxel Dose 20 mg/kg) was “(1/10)”, the “Mean Tumor Growth Inhibition” value ([4]; Docetaxel Dose 20 mg/kg) was 85% and the Regression ([4]; Docetaxel Dose 20 mg/kg) was 10%. The “Highest Tumor Volume Recorded” value ([4]; Docetaxel Dose 20 mg/kg) was 330 ± 33 mm^3, the “Lowest Tumor Volume Recorded” value ([4]; Docetaxel Dose 20 mg/kg) was 145 ± 8 mm^3 and the “Tumor Volume on Study Termination (Day 35)” value ([4]; Docetaxel Dose 20 mg/kg) was 330 ± 33 mm^3. For the same compound, the “Tumor Volume on Treatment Initiation (Day 0)” value ([4]; Docetaxel Dose 20 mg/kg) was 225 ± 12 mm^3, the “Mean body weight loss” value ([5]; 10 mg/kg, days 4 and 7) was 2% and the “Greatest mean body weight loss” value ([5]; 20 mg·kg, day 4) was 4%.
